Type: in vivo
Details: rat brain, 500 μM dopamine alone, no contrast agent, data not shown

NCCc1ccc(O)c(O)c1 [dopamine]
MRI signal changes on infusion alone: no noticeable signal changes

From PMC3073400 (Nature biotechnology, 2010)
